Laboratory results: patent US20220008567A1, “LIQUIDLY INJECTABLE, SELF-STABILIZING BIOPOLYMERS FOR THE DELIVERY OF RADIONUCLIDE” (priority 2018, published 2022)
pEC50: −log10 of the molar value.

Assays:
[1] = tested on: BxPc3 cells; test: MTS cell proliferation assay (in vitro cytotoxicity)
Protocol: (§1) In vitro cytotoxicity assessment. All cell lines were cultured in monolayers in sterile, vented culture flasks (Corning). Cells were passaged, collected, and then counted with 0.4% Trypan Blue (Thermo Fisher Scientific). Cells were then formulated in their respective media and plated in 96-well plates at 5,000 cells per well in 100 μL. After allowing cells to incubate at 37° C. for 12 h, drugs were then added to the wells. Each drug was formulated at the highest concentration in the cell media and then serially diluted. A PTX equivalent concentration between 10-4 and 10-12 M of each construct was plated in quadruplicate and allowed to incubate for 72 h. 20 μL of CellTiter 96® AQueoous One solution (Promega) was then added to each well. After 1.5 h, the absorbance of each plate was read at 490 nm and normalized to untreated cells to determine the relative cell survival. The half effective concentration (EC50) was calculated as the inflection between the curve's maxima and minima.

[2] = tested on: BxPc3 cells; test: Cell cycle distribution by propidium iodide flow cytometry (G2/M arrest); type: cell-based, human; conditions: 1 nM of equivalent paclitaxel
Protocol: As radiation sensitization is driven by late G2/M arrest, the effects of paclitaxel on cell cycle progression were examined. BxPc3 cells were treated in vitro with 1 nM of equivalent paclitaxel, stained with propidium iodide to measure relative DNA quantities, and analyzed by flow cytometry to assess the cell cycle distribution over time.

[3] = tested on: BxPc3, MIA PaCa-2 and AsPc-1 pancreatic cells; test: In vitro cytotoxicity by MTS across pancreatic cell lines; conditions: FIG. 5
Protocol: as §1

Q: How did the in vitro cytotoxicity ([1]; FIG. 4A) turn out when `CC(=O)O[C@H]1C(=O)[C@@]2(C)[C@H]([C@H](OC(=O)c3ccccc3)[C@]3(O)C[C@H](OC(=O)[C@H](O)[C@@H](NC(=O)c4ccccc4)c4ccccc4)C(C)=C1C3(C)C)[C@]1(OC(C)=O)CO[C@@H]1C[C@@H]2O` [PTX, paclitaxel] was run?
A: Its in vitro cytotoxicity is “nanomolar”.

Q: And the pEC50 ([1]; Homo sapiens, BXPC-3, 72 h, read-out: relative half-inhibitory concentration (EC50))?
A: Its pEC50 is 8.43.

Q: And the “peak proportion of cell population in G2/M phase” value [2]?
A: The value was 37.9%.

Q: What about the “time to maximum proportion of G2/M cells” value [2] of the same molecule?
A: The value was 12 h.

Q: And the “cytotoxicity in each cell line” value [3]?
A: The value was “nanomolar cytotoxicity”.
